Consider 15 substances from US9290529B2, “Carbonic anhydrase inhibitors and method of their production” (USTAV ORGANICKE CHEMIE A BIOCHEMIE AKADEMIE VED CESKE …, priority 2011, dated 2016).

Bounds are passed on as bounds.

What is called IC50 is the point on the concentration scale where inhibition reaches its midpoint. Read a high IC50 as a need for much substance.

One data set has as its system K562. The data set can be described thus: MTT cytotoxicity assay, K562. In kind it is cell-based, human. As to conditions: 72 h. The source says:
One of the parameters used as the basis for colorimetric assays is the metabolic activity of viable cells. For example, a microtiter assay which uses the tetrazolium salt MTT is now widely used to quantitate cell proliferation and cytotoxicity (Hájduch et al., Cytotechnology, 19, 1996, 243-245). For instance, this assay is used in drug screening programs and in chemosensitivity testing. Because tetrazolium salts are cleaved only by metabolically active cells, these assays exclusively detect viable cells. In the case of the MTT assay, yellow soluble tetrazolium salt is reduced to a coloured water-insoluble formazan salt. After it is solubilized, the formazan formed can easily and rapidly be quantified in a conventional ELISA plate reader at 570 nm (maximum absorbancy). The quantity of reduced formazan corresponds to the number of vital cells in the culture.
All cells were purchased from the […] (ATCC), unless otherwise indicated: the CEM line are highly chemosensitive T-lymphoblastic leukemia cells, K562 cells were derived from patient with […] with bcr-abl translocation, A549 line is lung adenocarcinoma, HCT116 is colorectal tumor cell line and its p53 gene knock-down counterpart (HCT116p53−) is a model of human cancers with p53 mutation frequently associated with poor prognosis. The daunorubicin resistant subline of CEM cells (CEM-DNR bulk) and paclitaxel resistant subline K562-tax were selected in our laboratory by the cultivation of maternal cell lines in increasing concentrations of daunorubicine or paclitaxel, respectively (Noskova et al., Neoplasma 49, 2002, 418). The CEM-DNR bulk cells overexpress MRP-1 protein, while K562-tax cells overexpress P-glycoprotein, both proteins belong to family of ABC transporters and are involved in primary and/or acquired multidrug resistance phenomenon (Noskova et al., Neoplasma 49, 2002, 418). The cells were maintained in Nunc/Corning 80 cm^2 plastic tissue culture flasks and cultured in cell culture medium (DMEM/RPMI 1640 with 5 g/l glucose, 2 mM glutamine, 100 U/ml penicillin, 100 μg/ml streptomycin, 10% fetal calf serum, and NaHCO3).
This assay was performed according to Hajduch et al., Anti-Cancer Drugs 10, 1997, 1007. Cell suspensions were prepared and diluted according to the particular cell type and the expected target cell density (2 500-30 000 cells/well based on cell growth characteristics). Cells were added by pipette (80 μl) into 96-well microtiter plates. Inoculates were allowed a pre-incubation period of 24 h at 37° C. and 5% CO2 for stabilization. Four-fold dilutions, in 20-μl aliquots, of the intended test concentration were added to the microtiter plate wells at time zero. All test compound concentrations were examined in duplicate. Incubation of the cells with the test compounds lasted for 72 h at 37° C., in a 5% CO2 atmosphere at 100% humidity. At the end of the incubation period, the cells were assayed using MTT. Aliquots (10 μl) of the MTT stock solution were pipetted into each well and incubated for a further 1-4 h. After this incubation period the formazan produced was dissolved by the addition of 100 μl/well of 10% aq SDS (pH=5.5), followed by a further incubation at 37° C. overnight. The optical density (OD) was measured at 540 nm with a Labsystem iEMS Reader MF. Tumor cell survival (TCS) was calculated using the following equation: TCS=(ODdrug-exposed well/mean ODcontrol wells)×100%. The TCS50 value, the drug concentration lethal to 50% of the tumor cells, was calculated from appropriate dose-response curves.
(Tetrazolium assays rely on reduction of a dye to a coloured formazan, in cell work by metabolically active cells.)

The target of data set [1] is T1, human carbonic anhydrase II (hCA II) (Homo sapiens, UniProt P00918).
T1 construct: purchased Sigma Aldrich C6165
Put plainly: Colorimetric carbonic anhydrase inhibition assay (CO2 hydration, phenol red), hCA II. Conditions: 0° C., HEPES pH 7.0. In kind it is biochemical. How it is done:
The compounds were assayed for inhibition activity of two isoforms of human carbonic anhydrase: hCA II and hCA IX. The human carbonic anhydrase II (HCA II) was purchased from Sigma Aldrich (Cat. No. C6165) in the form of lyophilized protein, which was dissolved before use in 10 mmol·l^−1 HEPES pH 7.0 to a concentration of 300 μmol·l^−1 and further diluted as required. Human carbonic anhydrase IX (HCA IX) was prepared by recombinant expression system in insect (Drosophila expression system, Invitrogen). […] This protein was further purified from media by chelating chromatography carrier His-Select Nickel Affinity Gel (Sigma, Cat No. P6611) and gel chromatography (Superdex 200 GL 30/300, GE Healthcare) according to the manufacturer's recommendations.
The principle of the method is based on measuring the rate of acidification of the solution that is observed as the color-shift of the acid-base-indicator (fenol red). The reaction was conducted in a glass tube placed in an ice bath (0° C., all stock solutions and enzymes were kept at the same temperature). […] This was followed by a CO2 saturation (stream flow 50 ml/min.) using a needle (18 G) up to color transition of fenol-red from red to yellow (typically 60 seconds by default). […] End point of reaction was determined by visual comparison with reference tube containing acid-base indicator (0.01% (wt./vol.) Fenol-red) and the pH adjusted to 7.0. […] Molar activity was calculated according to the formula:
[formula] where tB is the time of negative control without enzyme and tS is the time measured with an enzyme sample (and inhibitor), nprot is the number of moles of protein present in the sample. The value of IC50 for the inhibitor concentration corresponds inhibitor contraction required to decrease the specific activity to half of the value of non-inhibited enzyme. Selectivity towards CA IX inhibitor was calculated as the ratio of IC50 values for inhibition of HCA II against the value of IC50 for inhibition CA IX enzyme.

The subject of another data set is NMRI female mice. The data set can be described thus: Dose finding study (MTD, DLT), single intraperitoneal dose. As to conditions: for dose limiting toxicity (DLT): mouse, in vivo, ip; for maximum tolerated dose (MTD): single dose, intraperitoneally, NMRI female mice. The protocol:
Both compounds were dissolved in 10% dimethylsulfoxide/water (vol/vol) at stock concentration of 10 mg/ml and applied intraperitoneally to NMRI female mice (minimum 3/group) in ascending doses until the MTD was reached. Animals were housed in specific pathogen free conditions, water and food ad libitum.

The nature of data set [2]: Orientational pharmacokinetics, serum concentrations by HPLC. Conditions: intraperitoneally at the MTD, female NMRI mice.
Method: The ability of compounds to achieve therapeutically relevant concentrations in biological fluids was tested in orientational pharmacokinetics experiment. […] The blood was collected on ice and processed for serum separation within 60 minutes after sampling. Serum was evaporated to dryness on a device ThermoScientific SPD SpeedVac (72 h, 50° C.) until analyzed. Residues were precipitated by the 225 μl of acetonitrile with an addition of 25 μl of 10% SDS (w/w in water), then vortexed for 5 min and centrifuged 5 min at 14000 RPM at a room temperature. Aliquot of the supernatant was transferred into a 250 μl autosampler vial. […] Sensitivity range 0.2 or 0.02 A.U.F.S. (Absorbance Units Full Scale). An Ion-pair reverse phase chromatographic method with an isocratic elution 300 μl/min was used. Sample injection: 20 μl.

Regarding “1-methylenesulfamide-1,7-dicarba-closo-dodecaborane [CB-19]”, the IC50 worked out at 81 ± 3.3 µM in the data set with K562 and 8.9 µM in data set [1].

Take “1-methylenesulfamide-3,3′-commo-bis(1,2-dicarba-3-cobalta(III)-closo-dodecabor)ate (1-) [CB-5]”: it took 3.7 µM to reach half-maximal inhibition in data set [1] (IC50).

Regarding “1-methylenesulfamide-9-phenyl-1,2-dicarba-closo-dodecaborane and 1-methylene-sulfamide-12-phenyl-1,2-dicarba-closo-dodecaborane [CB-8]”, the IC50 in the data set on K562 is 71.3 ± 4.2 µM; in data set [1], 2.44 µM.

Regarding “1-methylensulfamide-1,2-dicarba-closo-dodekaborane [CB-1]”, the results for the IC50 (with K562; in data set [1]) were 60.1 ± 3 µM and 2.4 µM, respectively.

As for “1-sulfamide-closo-1-carbadodecaborate (1-) [CB-3]”, in the data set on K562, the IC50 was not below 100 µM.

As to “7-methylensulfamide-8-phenyl-(7,8-nido-dikarbaundekabor)ate (1-) [CB-6]”, the IC50 was determined as 27.5 ± 7.1 µM with K562 and 39.1 µM in data set [1].

For the substance “7-methylensulfamide-(7,8-nido-dicarbaundekaborate) (1-) [CB-2]”, the figures for the IC50 (in the data set on K562; in data set [1]) were not below 100 µM and 4.6 µM, respectively.

Consider “8-butyloxysulfamide-3,3′-commo-bis(decahydro-1,2-dicarba-3-cobalta(III)-closo-dodekabor)ate (1-) [CB-16]”, for which, in the data set with NMRI female mice, the “dose limiting toxicity (DLT)” value was “somnolence, apathy and local irritation”; the “maximum tolerated dose (MTD)” value was found to be 166 mg/kg. The substance also registered an IC50 in data set [1] of 0.68 µM. In data set [2], the T1/2 was 5 h and the “pharmacokinetics under in vivo conditions” value was “linear pharmacokinetics”.

Regarding “8-diethyleneoxysulfamide-3,3′-commo-bis(decahydro-1,2-dicarba-3-cobalta(III)-closo-dodekabor)ate (1-) [CB-17]”, the values for the IC50 (in the data set on K562; in data set [1]) were not below 100 µM and 12 µM, respectively.

In the case of “8-ethylaminomethylsulfamide-8″-methoxy-3,3′-commo-bis(decahydro-1,2-dicarba-3-cobalta(III)-closo-dodecabor)ate (1-) [CB-15]”, the values for the IC50 (with K562; in data set [1]) were 17.7 ± 0.7 µM and 14 µM, respectively.

For “8-methylensulfamide-8″-methoxy-3,3′-commo-bis(1,2-dicarba-3-cobalta(III)-closo-dodecabor)ate (1-) [CB-4]”, the concentration for half-maximal inhibition (IC50) in the data set on K562 came to 74.3 ± 3.7 µM. Moreover, in the data set on NMRI female mice, the “dose limiting toxicity (DLT)” value is “somnolence, apathy and local irritation”; the “maximum tolerated dose (MTD)” value was found to be 125 mg/kg. The substance further registered a half-maximal inhibitory concentration (IC50) in data set [1] of 5 µM. For the same substance, in data set [2], the T1/2 turned out to be 6.5 h and the “pharmacokinetics under in vivo conditions” value was “linear pharmacokinetics”.

As for “8-propylenesulfamide-7-phenyl-(7,8-nido-dicarbaundecabor)ate (1-) [CB-13]”, the IC50 in the data set on K562 is 71.8 ± 1.4 µM; in data set [1], 4 µM.

For “9-sulfamide-9′-amine-2,2′-commo-bis(1,7,9-trikarba-2-ferra(II)-kloso-dodekabor)ane [CB-12]”, the IC50 was not below 100 µM with K562 and 14.9 µM in data set [1].

Consider “10-sulfamide-9′-amine-2,2′-commo-(1,7,10-tricarba-1′,7′,9′-tricarba-2-ferra (II)-closo-dodekabor)ane [CB-10]”, for which the midpoint of inhibition in data set [1], the IC50, lay at 67.9 µM.

Take “Di(methylenesulfamide)-1,7-dicarba-closo-dodecaborane [CB-20]”: in data set [1], half-maximal inhibition (IC50) required 1.6 µM.
